Molecular target: T1, WT/R232 STING protein (Homo sapiens, UniProt Q86WV6, H232R)
T1 construct: host or cells: HEK293T
Assay: Luciferase reporter assay in HEK293T-hSTING-Luciferase cells, WT/R232
Type: cell-based
Details: 20 hr stimulation, read-out: R232 Activity (EC50 range)
From the text: • a) Stable STING expressing cells—Stable HEK293T STING-expressing cell lines were generated using plasmids purchased from Invivogen, Calif., USA, that contain STING cDNA cloned into the pUNO-1 vector under hEF1-HTLV promoter and containing the Blasticidin selection cassette. The plasmids hSTING(R232), hSTING(H232), hSTING(HAQ) were directly procured from Invivogen while hSTING (AQ) and hSTING (Q) were derived from hSTING(HAQ) and hSTING (R232) plasmids respectively by using a PCR based site directed mutagenesis method. These vectors were individually transfected into HEK293T cells using Lipofectamine (Invitrogen) and transfected cells were selected under Blasticidin selection. These transfected cells were further subjected to clonal selection using the limiting dilution method to obtain clonally pure populations of HEK cells transfected with each of the above mentioned human STING variants. Only those clones were selected in which ligand independent activation of STING was minimal. • b) Stable Luciferase reporter gene expressing cells—Stable HEK293T Luciferase reporter gene expressing cell lines were generated using pCDNA4 plasmids under an IRF-inducible promoter. This promoter is comprised of five tandem interferon-stimulated response elements (ISRE) fused to an ISG54 minimal promoter. This vector was transfected into HEK293T cells using Lipofectamine (Invitrogen) and transfected cells were selected under Zeocin selection. These transfected cells were further subjected to clonal selection using the limiting dilution method to obtain clonally pure populations of HEK cells transfected the Luciferase reporter construct. Only those clones were selected in which ligand independent induction of luciferase was minimal.
5×10^5 clonally selected HEK293T-hSTING-Luciferase cells were seeded in 384-well plates in growth medium and stimulated with novel compounds. After 20 hr of stimulation supernatant were removed and secretary reporter gene activity were measured using the Quanti-Luc detection system (Invivogen) on a Spectramax i3X luminometer.
All compounds were first tested in a primary screen using WT/R232 STING protein to obtain a ‘fold-induction’ over baseline levels of protein activity.

T1 sequence (Q86WV6 whole entry H232R): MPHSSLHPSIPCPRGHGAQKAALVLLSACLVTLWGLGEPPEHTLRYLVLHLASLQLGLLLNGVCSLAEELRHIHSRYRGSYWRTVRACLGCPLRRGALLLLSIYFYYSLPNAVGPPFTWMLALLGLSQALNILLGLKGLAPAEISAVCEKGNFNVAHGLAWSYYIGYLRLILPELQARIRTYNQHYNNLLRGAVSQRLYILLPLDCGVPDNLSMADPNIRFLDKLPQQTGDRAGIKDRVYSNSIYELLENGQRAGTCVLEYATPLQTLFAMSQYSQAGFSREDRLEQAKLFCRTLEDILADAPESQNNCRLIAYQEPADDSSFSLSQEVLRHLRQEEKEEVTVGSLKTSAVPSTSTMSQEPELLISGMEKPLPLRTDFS

Compound	EC50 [µM]
CC(NC(=O)c1ccc2c(c1)N(Cc1ccccc1)C(=O)CS2)c1ccco1 (stereo not shown) [Example 68, 4-benzyl-N-(1-(furan-2-yl)ethyl)-3-oxo-3,4-dihydro-2H-benzo[b-1,4]thiazine-6-carboxamide]	> 10
N#Cc1cc(C(=O)NCc2ccco2)cc2c1SCC(=O)N2Cc1cc(F)cc(F)c1 [Example 220, 8-cyano-4-(3,5-difluorobenzyl)-N-(furan-2-ylmethyl)-3-oxo-3,4-dihydro-2H-benzo[b-1,4]thiazine-6-carboxamide]	> 10
O=C(NCc1ccco1)c1ccc2c(c1)N(Cc1ccccc1F)C(=O)CS2 [Example 106, 4-(2-fluorobenzyl)-N-(furan-2-ylmethyl)-3-oxo-3,4-dihydro-2H-benzo[b-1,4]thiazine-6-carboxamide]	> 10
NC(=O)c1cccc(CN2C(=O)CSc3ccc(C(=O)NCc4ccco4)cc32)c1 [Example 86, 4-(3-carbamoylbenzyl)-N-(furan-2-ylmethyl)-3-oxo-3,4-dihydro-2H-benzo[b-1,4]thiazine-6-carboxamide]	> 10
COc1ccccc1CNC(=O)c1ccc2c(c1)N(Cc1ccccc1)C(=O)CS2 [Example 116, 4-benzyl-N-(2-methoxybenzyl)-3-oxo-3,4-dihydro-2H-benzo[b-1,4]thiazine-6-carboxamide]	> 10
O=C(NCc1c(F)cc(F)cc1F)c1ccc2c(c1)N(S(=O)(=O)c1cc(F)cc(F)c1)CCS2 [Example 262, 4-((1,5-Difluorophenyl)sulfonyl)-N-(2,4,6-trifluorobenzyl)-3,4-dihydro-2H-benzo[b-1,4]thiazine-6-carboxamide]	> 10
O=C(NCc1ccco1)c1ccc2c(c1)N(CCc1ccccc1Cl)C(=O)CS2 [Example 89, 4-(2-chlorophenethyl)-N-(furan-2-ylmethyl)-3-oxo-3,4-dihydro-2H-benzo[b-1,4]thiazine-6-carboxamide]	> 10
O=C(NCc1ccco1)c1ccc2c(c1)N(Cc1cc(Cl)cc(C(F)(F)F)c1)C(=O)CS2 [Example 102, 4-(3-chloro-5-(trifluoromethyl)benzyl)-N-(furan-2-ylmethyl)-3-oxo-3,4-dihydro-2H-benzo[b-1,4]thiazine-6-carboxamide]	1 to 10
O=C(NCc1ccco1)c1ccc2c(c1)N(C(=O)c1c(F)cccc1Cl)CCO2 [Example 265, 4-(2-chloro-6-fluorobenzoyl)-N-(furan-2-ylmethyl)-3,4-dihydro-2H-benzo[b-1,4]oxazine-6-carboxamide]	> 10
CC(NC(=O)c1ccc2c(c1)N(Cc1ccc(Cl)cc1)C(=O)CS2)c1ccccc1 (stereo not shown) [Example 125, 4-(4-chlorobenzyl)-3-oxo-N-(1-phenylethyl)-3,4-dihydro-2H-benzo[b-1,4]thiazine-6-carboxamide]	> 10
Cc1nc(CN2C(=O)CSc3ccc(C(=O)NCc4ccco4)cc32)cs1 [Example 96, N-(furan-2-ylmethyl)-4-((2-methylthiazol-4-yl)methyl)-3-oxo-3,4-dihydro-2H-benzo[b-1,4]thiazine-6-carboxamide]	> 10
Cc1noc(CNC(=O)c2cnc3c(c2)N(Cc2cc(F)cc(F)c2)C(=O)C(C)S3)n1 (stereo not shown) [Example 212, 1-(3,5-difluorobenzyl)-3-methyl-N-((3-methyl-1,2,4-oxadiazol-5-yl)methyl)-2-oxo-2,3-dihydro-1H-pyrido[2,3-b] [1,4] thiazine-7-carboxamide]	> 10
O=C(NCc1coc2ccccc12)c1ccc2c(c1)N(Cc1ccccc1)C(=O)CS2 [Example 70, N-(benzofuran-3-ylmethyl)-4-benzyl-3-oxo-3,4-dihydro-2H-benzo[b-1,4]thiazine-6-carboxamide]	> 10
O=C(NCc1ccco1)c1ccc2c(c1)N(Cc1cc(F)ccc1Cl)C(=O)CS2 [Example 99, 4-(2-chloro-5-fluorobenzyl)-N-(furan-2-ylmethyl)-3-oxo-3,4-dihydro-2H-benzo[b-1,4]thiazine-6-carboxamide]	1 to 10
N#CCC1Sc2ccc(C(=O)NCc3ccc(F)cc3F)cc2N(Cc2cc(F)cc(F)c2)C1=O (stereo not shown) [Example 162, 2-(cyanomethyl)-N-(2,4-difluorobenzyl)-4-(3,5-difluorobenzyl)-3-oxo-3,4-dihydro-2H-benzo[b][1,4] thiazine-6-carboxamide]	1 to 10
O=C(O)CC1Sc2ccc(C(=O)NCc3ccco3)cc2N(Cc2ccccc2F)C1=O (stereo not shown) [Example 175, 2-(4-(2-fluorobenzyl)-6-((furan-2-ylmethyl)carbamoyl)-3-oxo-3,4-dihydro-2H-benzo[b][1,4]thiazin-2-yl)acetic acid]	> 10

Compound	EC50 [µM]
CC1Sc2ccc(C(=O)NCCc3c(F)cc(F)cc3F)nc2N(Cc2cc(F)cc(F)c2)C1=O (stereo not shown) [Example 174, 4-(3,5-difluorobenzyl)-2-methyl-3-oxo-N-(2,4,6-trifluoro-phenethyl)-3,4-dihydro-2H-pyrido[3,2-b][1,4]thiazine-6-carboxamide]	> 10
O=C(NCc1ccco1)c1ccc2c(c1)N(Cc1ccc(Cl)cc1)C(=O)CS2 [Example 119, 4-(4-chlorobenzyl)-N-(furan-2-ylmethyl)-3-oxo-3,4-dihydro-2H-benzo[b-1,4]thiazine-6-carboxamide]	1 to 10
O=C(NCc1cccs1)c1ccc2c(c1)N(Cc1c(F)cccc1Cl)C(=O)CS2 [Example 107, 4-(2-chloro-6-fluorobenzyl)-3-oxo-N-(thiophen-2-ylmethyl)-3,4-dihydro-2H-benzo[b-1,4]thiazine-6-carboxamide]	1 to 10
O=C(NCc1ccco1)c1ccc2c(c1)N(CC(O)c1ccccc1)CCS2 (stereo not shown) [Example 248, N-(furan-2-ylmethyl)-4-(2-hydroxy-2-phenylethyl)-3,4-dihydro-2H-benzo[b-1,4]thiazine-6-carboxamide]	> 10
O=C(NCc1ccco1)c1ccc2c(c1)N(Cc1ccccc1)C(=S)CS2 [Example 266, 4-Benzyl-N-(furan-2-ylmethyl)-3-thioxo-3,4-dihydro-2H-benzo[b-1,4]thiazine-6-carboxamide]	> 10
Cc1ccc(CNC(=O)c2ccc3c(n2)N(Cc2cccc(C(N)=O)c2)C(=O)C(C)S3)o1 (stereo not shown) [Example 205, 4-(3-carbamoyl-benzyl)-2-methyl-N-((5-methylfuran-2-yl)methyl)-3-oxo-3,4-dihydro-2H-pyrido[3,2-b][1,4]thiazine-6-carboxamide]	1 to 10
O=C(NCCC1CCCCC1)c1ccc2c(c1)N(Cc1ccccc1)C(=O)CS2 [Example 81, 4-benzyl-N-(2-cyclohexylethyl)-3-oxo-3,4-dihydro-2H-benzo[b-1,4]thiazine-6-carboxamide]	> 10
O=C(NCc1c(F)cc(F)cc1F)c1ccc2c(c1)N(C(=O)c1c(F)cccc1Cl)CCO2 [Example 264, 4-(2-chloro-6-fluorobenzoyl)-N-(2,4,6-trifluorobenzyl)-3,4-dihydro-2H-benzo[b-1,4]oxazine-6-carboxamide]	> 10
Cc1cccc(CN2C(=O)CSc3ccc(C(=O)NCC4CCCCC4)cc32)c1C [Example 25, N-(cyclohexyl-methyl)-4-(2,3-dimethyl-benzyl)-3-oxo-3,4-dihydro-2H-benzo[b-1,4]thiazine-6-carboxamide]	> 10
Cc1cnc(CNC(=O)c2cnc3c(c2)N(Cc2cc(F)cc(F)c2)C(=O)C(C)S3)o1 (stereo not shown) [Example 213, 1-(3,5-difluorobenzyl)-3-methyl-N-((5-methyloxazol-2-yl)methyl)-2-oxo-2,3-dihydro-1H-pyrido[2,3-b][1,4]thiazine-7-carboxamide]	> 10
CN1CCCC(CN2C(=O)CSc3ccc(C(=O)NCc4ccco4)cc32)C1 (stereo not shown) [Example 98, N-(furan-2-ylmethyl)-4-((1-methylpiperidin-3-yl)methyl)-3-oxo-3,4-dihydro-2H-benzo[b-1,4]thiazine-6-carboxamide]	> 10
CC1Sc2ncc(C(=O)NCc3cccnn3)cc2N(Cc2cc(F)cc(F)c2)C1=O (stereo not shown) [Example 214, 1-(3,5-difluorobenzyl)-3-methyl-2-oxo-N-(pyridazin-3-ylmethyl)-2,3-dihydro-1H-pyrido [2,3-b][1,4] thiazine-7-carboxamide]	> 10
O=C(NCc1ccco1)c1ccc2c(c1)N(Cc1ccncc1)C(=O)CS2 [Example 28, N-(furan-2-ylmethyl)-3-oxo-4-(pyridin-4-ylmethyl)-3,4-dihydro-2H-benzo[b-1,4]thiazine-6-carboxamide]	> 10
C[C@@H]1Oc2ncc(C(=O)NCc3c(F)cc(F)cc3F)cc2N(Cc2cc(F)cc(F)c2)C1=O [Example 237, (S)-1-(3,5-difluorobenzyl)-3-methyl-2-oxo-N-(2,4,6-trifluorobenzyl)-2,3-dihydro-1H-pyrido[2,3-b-1,4]oxazine-7-carboxamide]	1 to 10
C[C@@H](NC(=O)c1ccc2c(c1)N(Cc1ccccc1F)C(=O)CS2)C1CCCCC1 [Example 19, (R)-N-(1-cyclohexyl-ethyl)-4-(2-flurobenzyl)-3-oxo-3,4-dihydro-2H-benzo[b-1,4]thiazine-6-carboxamide]	> 10

— patent US20200138827A1, “SMALL MOLECULE MODULATORS OF HUMAN STING” (Curadev Pharma Limited, priority 2017, published 2020)
